The test system of test [1] is house mite allergic substance-induced asthma in mice. The experiment in a line: house mite allergen asthma animal model. In kind it is in vivo. The conditions noted are these: for mucin in lung tissue (periodic Schiff staining): 20 ul intratracheal, LCB 03-0110 0.1%, Budesonide 0.03%.
The next test concerns the target c-Src tyrosine kinase (Homo sapiens (Human), UniProt P12931). The experiment in a line: in vitro c-Src tyrosine kinase inhibition (32P-ATP, poly(D4Y)n substrate). The format is biochemical. The conditions noted are these: 1 uM compound; read-out: % inhibition against c-Src.
For another test, the target named is Hck tyrosine kinase (Homo sapiens (Human), UniProt P08631). The test can be described thus: in vitro Hck tyrosine kinase inhibition. In kind it is biochemical. The conditions noted are these: read-out: % inhibition against Hck.
Another test concerns the target Fgr tyrosine kinase (Homo sapiens (Human), UniProt P09769). The test can be described thus: in vitro Fgr tyrosine kinase inhibition. The format is biochemical. The conditions noted are these: read-out: % inhibition against Fgr.
The target in the next test is Lyn tyrosine kinase (Homo sapiens (Human), UniProt P07948). The test can be described thus: in vitro Lyn tyrosine kinase inhibition. The format is biochemical. Particulars: read-out: % inhibition against Lyn.
The target in another test is DDR1 tyrosine kinase (Homo sapiens (Human), UniProt Q08345). The experiment in a line: in vitro DDR1 tyrosine kinase inhibition (GST-fused kinase domain). The format is biochemical. Particulars: read-out: % inhibition against DDR1.
Another test deals with DDR2 tyrosine kinase (Homo sapiens (Human), UniProt Q16832). The experiment in a line: in vitro DDR2 tyrosine kinase inhibition (GST-fused kinase domain). In kind it is biochemical. Particulars: read-out: % inhibition against DDR2.
The test system of test [2] is TNF-α synthesis in J744A.1 macrophages. The test can be described thus: inhibition of TNF-α synthesis in LPS-activated macrophages (ELISA). The format is cell-based. The conditions noted are these: Macrophage, 6 h, read-out: Inhibition (%) of TNF-α synthesis. A general note: An ELISA detects its analyte on a solid surface through an enzyme-linked reagent.
Test [3] concerns NO synthesis in J744A.1 macrophage. The test can be described thus: inhibition of nitric oxide (NO) synthesis in LPS-activated macrophages (Griess reagent). The format is cell-based. The conditions noted are these: 24 h, read-out: Inhibition (%) of NO synthesis. Background: The Griess reaction detects nitrite, a stable product of nitric oxide.
Test [4] has as its system α-smooth muscle actin protein expression in skin fibroblast cells. The experiment in a line: inhibition of α-smooth muscle actin expression in fibroblast activated by type I collagen and TGF-β1 (western blotting). The format is cell-based, Balb/C mouse. Particulars: Mus musculus, read-out: Inhibition (%) of α-smooth muscle actin increase. In outline: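 α-Smooth muscle actin protein was detected by western blotting with chemiluminescence on X-ray film. Levels were quantified by densitometry of the band.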
Background: A western blot detects proteins with antibodies after separation by electrophoresis.

A further test has as its system mouse skin fibroblast. The test can be described thus: inhibition of migration of activated fibroblast (scratch wound). The conditions noted are these: 0.5 uM compound, 10 ng/ml TGF-β1, 24 hours, read-out: Inhibition (%) of migration of activated fibroblast. The format is cell-based. A digest of the protocol: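 Scratch wound was made on a fibroblast monolayer, then cells were kept in DMEM with 10 ng/ml TGF-β1 at 37° C for 24 hours. After formalin fixation and crystal violet staining, cells that had moved into the wound were counted at 100× in five random fields and averaged.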

Test [5] relates to oxazolone-induced skin inflammation of Balb/C mouse ears. The test can be described thus: mouse skin inflammatory model induced by oxazolone (ear thickness). The format is in vivo. In outline: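 Oxazolone was used to induce skin inflammation in the ears of 8-week-old Balb/C mice. Ear thickness was measured by caliper before induction, again at 36 h to capture inflammatory swelling, and averaged per group (n=4).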

Test [6] deals with TNCB-induced atopic dermatitis in Nc/Nga mice. Particulars: 0.1% transdermal every day for two weeks.
The test system of test [7] is full excisional ear wounds in New Zealand white rabbits. The conditions noted are these: 0.1% topical.
The subject of test [8] is IL-12 synthesis in J774A.1 macrophage. The experiment in a line: cells. The conditions noted are these: Mus musculus, J774.A1, read-out: inhibition of LPS-induced IL-12 synthesis.
Another test concerns RBL-2H3 mast cells. The experiment in a line: cells. Particulars: Rattus norvegicus, RBL-2H3, read-out: inhibition of hexosaminidase release (degranulation).
[9] abbreviates: 0.5 uM compound, 10 ng/ml TGF-β1, 48 hours, type I collagen.
Where [10] appears, read: 20 ul of 0.1% compound topical on ear, 36 hours after oxazolone.

Like-named read-outs stand apart in the source and are kept apart here.

Lyn tyrosine kinase, sequence (P07948 whole entry, the tested form may be a part): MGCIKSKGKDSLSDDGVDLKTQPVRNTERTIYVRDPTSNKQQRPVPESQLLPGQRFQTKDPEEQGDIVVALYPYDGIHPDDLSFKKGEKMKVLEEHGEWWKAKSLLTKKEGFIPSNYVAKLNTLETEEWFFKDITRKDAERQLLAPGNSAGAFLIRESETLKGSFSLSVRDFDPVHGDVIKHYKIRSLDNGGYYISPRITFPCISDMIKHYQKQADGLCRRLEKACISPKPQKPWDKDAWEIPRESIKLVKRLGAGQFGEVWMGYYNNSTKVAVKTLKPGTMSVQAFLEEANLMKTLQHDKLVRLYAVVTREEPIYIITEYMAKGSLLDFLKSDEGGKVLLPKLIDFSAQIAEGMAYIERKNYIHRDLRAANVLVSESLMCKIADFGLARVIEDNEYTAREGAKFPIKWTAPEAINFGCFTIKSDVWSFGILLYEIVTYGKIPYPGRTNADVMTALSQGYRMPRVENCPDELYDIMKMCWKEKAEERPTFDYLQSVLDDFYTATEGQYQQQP
DDR2 tyrosine kinase, sequence (Q16832 563-849): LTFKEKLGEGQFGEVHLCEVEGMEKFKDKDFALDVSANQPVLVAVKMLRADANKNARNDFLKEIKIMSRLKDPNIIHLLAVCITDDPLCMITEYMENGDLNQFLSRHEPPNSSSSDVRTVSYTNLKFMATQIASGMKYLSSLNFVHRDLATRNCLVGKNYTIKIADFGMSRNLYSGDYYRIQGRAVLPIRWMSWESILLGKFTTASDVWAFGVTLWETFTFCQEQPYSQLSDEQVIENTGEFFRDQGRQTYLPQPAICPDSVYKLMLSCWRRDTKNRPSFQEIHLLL
Fgr tyrosine kinase, sequence (P09769 whole entry): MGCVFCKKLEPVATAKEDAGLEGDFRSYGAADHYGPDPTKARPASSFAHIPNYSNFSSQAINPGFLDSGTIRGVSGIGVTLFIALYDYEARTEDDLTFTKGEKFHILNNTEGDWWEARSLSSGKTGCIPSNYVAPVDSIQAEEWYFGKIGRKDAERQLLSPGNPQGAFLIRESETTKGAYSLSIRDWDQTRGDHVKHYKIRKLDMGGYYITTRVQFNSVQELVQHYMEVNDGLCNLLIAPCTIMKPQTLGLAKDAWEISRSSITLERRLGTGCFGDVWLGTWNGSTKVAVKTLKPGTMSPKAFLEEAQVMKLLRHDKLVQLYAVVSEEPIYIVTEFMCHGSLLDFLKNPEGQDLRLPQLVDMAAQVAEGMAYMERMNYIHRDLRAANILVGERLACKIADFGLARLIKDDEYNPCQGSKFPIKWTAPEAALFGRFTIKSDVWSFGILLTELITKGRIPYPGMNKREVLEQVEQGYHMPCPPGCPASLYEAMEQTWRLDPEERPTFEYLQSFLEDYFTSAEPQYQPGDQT
c-Src tyrosine kinase, sequence (P12931 whole entry, looked up): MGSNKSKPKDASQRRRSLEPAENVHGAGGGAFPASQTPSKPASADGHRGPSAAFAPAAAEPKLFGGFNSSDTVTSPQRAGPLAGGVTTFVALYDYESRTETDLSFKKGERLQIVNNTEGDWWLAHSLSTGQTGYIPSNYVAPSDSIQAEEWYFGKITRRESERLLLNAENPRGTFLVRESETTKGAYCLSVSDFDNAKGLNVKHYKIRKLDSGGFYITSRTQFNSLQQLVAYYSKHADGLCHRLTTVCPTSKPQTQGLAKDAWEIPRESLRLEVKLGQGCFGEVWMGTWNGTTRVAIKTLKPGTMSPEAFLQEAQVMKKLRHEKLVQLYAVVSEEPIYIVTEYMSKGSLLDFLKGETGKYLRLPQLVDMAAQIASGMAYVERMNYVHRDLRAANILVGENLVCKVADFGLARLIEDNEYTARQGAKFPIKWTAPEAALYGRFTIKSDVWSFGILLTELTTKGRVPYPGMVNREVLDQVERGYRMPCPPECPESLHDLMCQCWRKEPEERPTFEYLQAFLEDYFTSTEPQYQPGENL
Hck tyrosine kinase, sequence (P08631 whole entry): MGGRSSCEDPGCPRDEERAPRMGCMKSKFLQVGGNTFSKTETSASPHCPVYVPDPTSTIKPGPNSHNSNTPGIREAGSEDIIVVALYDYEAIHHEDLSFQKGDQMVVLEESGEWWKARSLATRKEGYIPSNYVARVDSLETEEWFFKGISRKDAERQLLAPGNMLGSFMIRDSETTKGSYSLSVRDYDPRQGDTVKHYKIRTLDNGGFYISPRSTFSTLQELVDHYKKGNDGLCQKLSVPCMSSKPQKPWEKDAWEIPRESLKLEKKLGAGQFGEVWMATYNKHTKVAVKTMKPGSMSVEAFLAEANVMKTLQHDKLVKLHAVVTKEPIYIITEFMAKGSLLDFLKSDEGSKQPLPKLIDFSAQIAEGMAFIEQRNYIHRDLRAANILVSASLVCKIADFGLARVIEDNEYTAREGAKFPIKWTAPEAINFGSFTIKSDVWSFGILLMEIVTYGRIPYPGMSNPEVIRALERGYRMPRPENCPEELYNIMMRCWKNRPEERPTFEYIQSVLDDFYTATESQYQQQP
DDR1 tyrosine kinase, sequence (Q08345 610-905): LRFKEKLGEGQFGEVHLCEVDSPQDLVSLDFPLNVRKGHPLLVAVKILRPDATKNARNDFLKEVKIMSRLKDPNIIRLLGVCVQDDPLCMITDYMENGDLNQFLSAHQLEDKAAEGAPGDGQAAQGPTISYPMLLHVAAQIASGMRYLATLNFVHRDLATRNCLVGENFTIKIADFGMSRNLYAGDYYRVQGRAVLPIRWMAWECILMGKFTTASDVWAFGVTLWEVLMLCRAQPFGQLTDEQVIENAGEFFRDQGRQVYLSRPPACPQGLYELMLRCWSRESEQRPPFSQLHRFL

`CCCC1O[C@@H]2C[C@H]3[C@@H]4CCC5=CC(=O)C=C[C@]5(C)[C@H]4[C@@H](O)C[C@]3(C)[C@]2(C(=O)CO)O1` (stereo partly shown) [Budesonide, reference compound]: the “mucin in lung tissue (periodic Schiff staining)” value in test [1] was “decreased the extent of the staining”.
As for `CN1CCN(Cc2ccc(-c3cc4ncnc(Nc5cccc(O)c5)c4s3)s2)CC1` [LCB 03-0092, 3-(6-(5-((4-methylpiperazin-1-yl)methyl)thiophene-2-yl)thieno[3,2-d]pyrimidin-4-ylamino)phenol], the inhibition at 1 µM at c-Src tyrosine kinase was above 60%; at Hck tyrosine kinase (1 uM compound), above 60%; on Fgr tyrosine kinase (1 uM compound) it was above 50%; at Lyn tyrosine kinase (1 uM compound), above 60%; at DDR1 tyrosine kinase (1 uM compound), above 80%; at DDR2 tyrosine kinase (1 uM compound) it was above 80%. Also, the inhibition at 10 µM in [2] was 64%; in test [3] it was 90%. Also, the inhibition at 0.5 µM came to 37% in test [4] (setting [9]) and 28% with mouse skin fibroblast. The “Inhibition (%) of increase of ear thickness” value in test [5] (setting [10]) stood at 47%.
Turning to `Oc1cccc(Nc2ncnc3cc(-c4ccc(CN5CCCCC5)s4)sc23)c1` [LCB 03-0093, 3-(6-(5-(piperidin-1-ylmethyl)thiophene-2-yl)thieno[3,2-d]pyrimidin-4-ylamino)phenol], the inhibition at 1 µM on c-Src tyrosine kinase is above 60%; at Hck tyrosine kinase (1 uM compound), above 60%; on Fgr tyrosine kinase (1 uM compound) it was above 60%; on Lyn tyrosine kinase (1 uM compound) it was above 60%; at DDR1 tyrosine kinase (1 uM compound) it was above 80%; at DDR2 tyrosine kinase (1 uM compound), above 80%. For the same compound, the figures for the inhibition at 10 µM in test [2] and in test [3] were 53% and 79%, respectively. In addition, the inhibition at 0.5 µM in test [4] (setting [9]) turned out to be 43%; in the test with mouse skin fibroblast, 31%. In addition, in [5] (setting [10]), the “Inhibition (%) of increase of ear thickness” value was 51%.
With `Oc1cccc(Nc2ncnc3cc(-c4ccc(CN5CCNCC5)s4)sc23)c1` [LCB 03-0094, 3-(6-(5-(piperazin-1-ylmethyl)thiophene-2-yl)thieno[3,2-d]pyrimidin-4-ylamino)phenol], the inhibition at 1 µM is above 60% on c-Src tyrosine kinase; above 60% on Hck tyrosine kinase (1 uM compound); above 60% at Fgr tyrosine kinase (1 uM compound); above 60% at Lyn tyrosine kinase (1 uM compound); above 80% at DDR1 tyrosine kinase (1 uM compound); above 80% at DDR2 tyrosine kinase (1 uM compound). For the same compound, the inhibition at 10 µM stood at 56% in test [2] and 77% in test [3]. Moreover, the results for the inhibition at 0.5 µM (in test [4] (setting [9]); with mouse skin fibroblast) were 41% and 29%, respectively. In addition, in test [5] (setting [10]), the “Inhibition (%) of increase of ear thickness” value turned out to be 49%.
As for `Oc1cccc(Nc2ccnc3cc(-c4cccc(CN5CCCC5)c4)sc23)c1` [LCB 03-0107, 3-(2-(3-(pyrrolidin-1-ylmethyl)phenyl)thieno[3,2-b]pyridin-7-ylamino)phenol], the inhibition at 1 µM at c-Src tyrosine kinase is above 70%; at Hck tyrosine kinase (1 uM compound), above 70%; on Fgr tyrosine kinase (1 uM compound) it was above 70%; at Lyn tyrosine kinase (1 uM compound), above 70%; at DDR1 tyrosine kinase (1 uM compound), above 80%; on DDR2 tyrosine kinase (1 uM compound), above 80%. For the same compound, the inhibition at 10 µM in [2] worked out at 45%; in test [3] it was 81%. For the same compound, the inhibition at 0.5 µM in test [4] (setting [9]) was determined as 71%; in the test with mouse skin fibroblast it was 58%. For the same compound, the “Inhibition (%) of increase of ear thickness” value in test [5] (setting [10]) was found to be 59%.
Consider `CN1CCN(Cc2cccc(-c3cc4nccc(Nc5cccc(O)c5)c4s3)c2)CC1` [LCB 03-0108, 3-(2-(3-((4-methylpiperazin-1-yl)methyl)phenyl)thieno[3,2-b]pyridin-7-ylamino)phenol], for which the inhibition at 1 µM on c-Src tyrosine kinase, at Hck tyrosine kinase (1 uM compound), on Fgr tyrosine kinase (1 uM compound), at Lyn tyrosine kinase (1 uM compound), on DDR1 tyrosine kinase (1 uM compound) and at DDR2 tyrosine kinase (1 uM compound) was above 80% in each case. The inhibition at 10 µM turned out to be 53% in test [2] and 92% in test [3]. Moreover, the values for the inhibition at 0.5 µM (in test [4] (setting [9]); in the test on mouse skin fibroblast) were 75% and 56%, respectively. For the same compound, the “Inhibition (%) of increase of ear thickness” value in [5] (setting [10]) was 63%.
As to `Oc1cccc(Nc2ccnc3cc(-c4cccc(CN5CCCCC5)c4)sc23)c1` [LCB 03-0109, 3-(2-(3-(piperidin-1-ylmethyl)phenyl)thieno[3,2-b]pyridin-7-ylamino)phenol], the inhibition at 1 µM is above 70% on c-Src tyrosine kinase; above 70% at Hck tyrosine kinase (1 uM compound); above 70% at Fgr tyrosine kinase (1 uM compound); above 70% at Lyn tyrosine kinase (1 uM compound); above 80% on DDR1 tyrosine kinase (1 uM compound); above 80% at DDR2 tyrosine kinase (1 uM compound). The inhibition at 10 µM in [2] was 56%; in test [3] it was 90%. The inhibition at 0.5 µM stood at 67% in [4] (setting [9]) and 48% in the test with mouse skin fibroblast. Also, the “Inhibition (%) of increase of ear thickness” value in test [5] (setting [10]) worked out at 52%.
As to `Oc1cccc(Nc2ccnc3cc(-c4cccc(CN5CCOCC5)c4)sc23)c1` [LCB 03-0110, 3-(2-(3-(morpholinomethyl)phenyl)thieno[3,2-b]pyridin-7-ylamino)phenol], the inhibition at 1 µM on Hck tyrosine kinase is above 80%; at Fgr tyrosine kinase, above 80%; on Lyn tyrosine kinase it was above 90%; on DDR1 tyrosine kinase it was above 90%; on DDR2 tyrosine kinase it was above 90%; in test [8], around 100%. For the same compound, the inhibition at 10 µM in test [2] was determined as 64%; in [3], 97%. The inhibition at 0.5 µM in test [4] (48 h) is 82%. Moreover, the “Inhibition (%) of increase of ear thickness” value in test [5] (mouse, in vivo) turned out to be 72%. In test [1], the “mucin in lung tissue (periodic Schiff staining)” value is recorded as “suppressed mucin synthesis similarly to the positive control”. Moreover, the “eosinophil penetration into lung tissue” value in test [1] (20 ul of 0.1% intratracheal) was “suppressed eosinophil penetration into lung tissue”. Besides, the “eotaxin in BALF” value in test [1] (20 ul of 0.1% intratracheal) is on record as “suppression of eotaxin”. Further, the “reduction of epidermal thickness compared to the TNCB group” value in [6] is “more than 60%”. Besides, the “reduction of mast cell count compared to the TNCB group” value in [6] was “approximately 25%”. In addition, the “reduction of serum IgE level compared to the TNCB group” value in test [6] was “more than 20%”. The “reduction of transepidermal water loss (TEWL) compared to the TNCB group” value in test [6] is on record as “more than 30%”. Further, the wound closing rate entry in test [7] (150 μL per wound, every three days, versus carrier solution) is listed as “closed at a higher rate”. The “macrophages (F4/80) and activated myoblast cells (alpha smooth muscle actin) in wound tissue” value in [7] (three days after wounding) is “suppressed the activation of macrophages and myoblast cells with a statistical significance”. In the test with RBL-2H3 mast cells, the inhibition at 0.3 µM is at least 80%.
`Oc1cccc(Nc2ccnc3cc(-c4cccc(CN5CCNCC5)c4)sc23)c1` [LCB 03-0111, 3-(2-(3-(piperazin-1-ylmethyl)phenyl)thieno[3,2-b]pyridin-7-ylamino)phenol]: the inhibition at 1 µM on c-Src tyrosine kinase was above 80%; on Hck tyrosine kinase (1 uM compound), above 80%; at Fgr tyrosine kinase (1 uM compound), above 80%; on Lyn tyrosine kinase (1 uM compound), above 80%; at DDR1 tyrosine kinase (1 uM compound), above 90%; on DDR2 tyrosine kinase (1 uM compound), above 90%. Moreover, the inhibition at 10 µM turned out to be 57% in test [2] and 92% in test [3]. Besides, the inhibition at 0.5 µM in test [4] (setting [9]) was 79%; in the test on mouse skin fibroblast it was 58%. In test [5] (setting [10]), the “Inhibition (%) of increase of ear thickness” value is recorded as 71%.
As to `CCNCc1cccc(-c2cc3nccc(Nc4cccc(O)c4)c3s2)c1` [LCB 03-0112, 3-(2-(3-((ethylamino)methyl)phenyl)thieno[3,2-b]pyridin-7-ylamino)phenol], the inhibition at 1 µM at c-Src tyrosine kinase, at Hck tyrosine kinase (1 uM compound), on Fgr tyrosine kinase (1 uM compound), on Lyn tyrosine kinase (1 uM compound), at DDR1 tyrosine kinase (1 uM compound) and at DDR2 tyrosine kinase (1 uM compound) was above 80% in each case. Besides, the inhibition at 10 µM in test [2] came out at 46%; in test [3] it was 81%. Moreover, the figures for the inhibition at 0.5 µM (in test [4] (setting [9]); in the test on mouse skin fibroblast) were 71% and 38%, respectively. In test [5] (setting [10]), the “Inhibition (%) of increase of ear thickness” value was found to be 68%.

(Values after patent publication US9062066B2, “Anti-inflammatory compound having inhibitory activity against multiple tyrosine kinases and pharmaceutical composition containing same” (KOREA INSTITUTE OF SCIENCE AND TECHNOLOGY, priority 2010, dated 2015).)
